Test results from patent US20040044304A1, “Local drug delivery using photosensitizer-mediated and electromagnetic radiation enhanced vascular permeability” (priority 2002, published 2004).
Values joined by “and” are separate entries in the source; they are usually repeats but may differ in a detail not shown here. Identical values can stand only once. Marks after values point to notes of the source that are not given here.

System: blood vessels and tissue within region of irradiation
Assay: Quantitation of FITC-Dextran or TRITC-Dextran fluorescence in blood vessels and tissue (method of Brunner et al.)
Type: in vivo, mice of strain C3H
Details: for Fluorecence intensity, Tissue, Baseline / Fluorecence intensity, Vessel, Baseline: prior to photodynamic treatment and probe
Protocol: At varying time points following the photodynamic activation of MRV6401 or SnET2, a total volume of 0.1 ml of either FITC-Dextran or TRITC-Dextran (obtained from Sigma Scientific, PO Box 14508, St. Louis, Mo., 63178, USA) was administered via the i.v. tail vein route. […] No. FD-2000s) or of molecular weight 150 kD (Sigma Cat. No. FD-150s), and the TRITC-Dextran solution was of molecular weight 155 kD (Sigma Cat. No. T1287). Prior to use, the dextrans were suspended in sterile 5% dextrose in water to a final concentration of 5% weight:volume. In all cases, a total volume of 0.1 ml of the […] solution was administered. The time of administration and the molecular weight of the various dextrans that were injected were as described in Table 6. In some animals the vascular permeability was determined 1-60 minutes following the completion of light irradiation using a dextran probe labeled with either FITC or TRITC, which was then followed 24 hours later by determination using a probe labeled with the other (opposite) fluorescent molecule. That is, if FITC was used immediately following irradiation, TRITC was used 24 hours later, and vice versa. To visualize the fluorescence emitted from the FITC-Dextrans, the Leitz Ploemopak L2 cube (Cat. No. 513-420, E. Leitz Inc., Rockleigh, N.J., 07647, USA) was used. This filter cube was fitted with a BP 450-490 (450 nm-490 nm band pass) excitation filter, the RKP 510 long pass dichroic mirror and a BP 525/20 (525±10 nm) band pass barrier filter. To visualize the fluorescence emitted from the TRITC-Dextrans, the Leitz Ploemopak N2 cube (Cat. No. 513-609, E. Leitz Inc., Rockleigh, N.J., 07647, USA) was used. This filter cube was fitted with a BP 530-560 (530 nm-560 nm band pass) excitation filter, the RKP 580 long pass dichroic mirror and the LP 580 (580 nm long pass) barrier filter. The spectral characteristics of the filters in the L2 and N2 cubes were such that in animals that were injected with both FITC- and TRITC-Dextran (see Table 6), there was no fluorescence “bleed-through” from the other fluorophore. That is, when visualizing TRITC-Dextran there was no fluorescent signal from FITC-Dextran that was present in the field. Similarly, when visualizing FITC-Dextran, there was no fluorescent signal from TRITC-Dextran that was present in the field. The quantitation of the level of either FITC-Dextran or TRITC-Dextran fluorescence in various regions of the chambers was undertaken using a minor modification of a previously described method [J. Brunner, F. Krummenaeur and H -A Lehr, “Quantification of video-taped images in microcirculation research using inexpensive imaging software” (Adobe Photoshop), Microcirculation, Vol. 7, pp 103-107, 2000]. In the studies described by Brunner et al., the imaging software utilized to quantitate the levels of fluorescence intensity in defined regions of interest within the window chamber was Adobe Photoshop. The software utilized for the studies described below was Image-Pro Plus (Media Cybernetics, 8484 Georgia Avenue, Silver Spring, Md. 20910, USA). In all other respects, the analysis undertaken below was the same as that described by Brunner et al. The level of fluorescence that was determined in both intra-vascular and extra-vascular regions using this method was directly proportional to the amount of the fluorescent labeled dextran in that region (Brunner et al., 2000).

[1] = 155 kD TRITC-Dextran, SnET2 0.75 mg/kg i.v., green 530 nm-560 nm 225 J/cm^2, time after TRITC-Dextran administration, region of irradiation, 0.75 mg/kg
[2] = Animal #12, 2,000 kD FITC-Dextran, MRV6401 0.05 mg/kg i.v., red 660 nm-680 nm 8 J/cm^2
[3] = Animal #12, 2,000 kD FITC-Dextran, MRV6401 0.05 mg/kg i.v., red 660 nm-680 nm 8 J/cm^2, time after Dextran administration
[4] = Animal #13, 155 kD TRITC-Dextran, MRV6401 0.05 mg/kg i.v., red 660 nm-680 nm 8 J/cm^2
[5] = Animal #13, 155 kD TRITC-Dextran, MRV6401 0.05 mg/kg i.v., red 660 nm-680 nm 8 J/cm^2, time after Dextran administration

## CCOC(=O)C1=Cc2c3nc(cc4nc(cc5[n-]c(cc6[n-]c2c(C)c6CC)c(C)c5CC)C(C)=C4CC)[C@@H](C)[C@]13CC.[Cl-].[Cl-].[Sn] (racemic) [SnET2, tin ethyl etiopurpurin]
155 kD TRITC-Dextran, SnET2 0.75 mg/kg i.v., green 530 nm-560 nm 225 J/cm^2, mean ± 1 SD of three readings, 0.75 mg/kg
  Fluorecence intensity, Tissue, Baseline: 30.5 ± 1.4 and 26.5 ± 0.2
[1]
  Fluorecence intensity, Tissue, 8 min: 82.9 ± 1.9 and 73 ± 2.0
  Fluorecence intensity, Tissue, 20 min: 110 ± 2.4 and 120 ± 4.4
  Fluorecence intensity, Tissue, 1 hr: 175.4 ± 3.3 and 127.9 ± 5.5
  Fluorecence intensity, Tissue, 24 hr: 196.4 ± 4.2 and 155 ± 7.1
  Fluorecence intensity, Vessel, 8 min: 72 ± 1.7 and 105 ± 3.1
  Fluorecence intensity, Vessel, 20 min: 90.6 ± 5.8 and 111 ± 2.7
  Fluorecence intensity, Vessel, 1 hr: 97.7 ± 6.2 and 134 ± 10
  Fluorecence intensity, Vessel, 24 hr: 55 ± 3.1 and 78 ± 1.5

## C=Cc1c(C)c2[n]3c1=CC1=NC(=Cc4c(C)c5c([n]4[In]3[Cl])C(=C3N=C(C=2)[C@@H](C)[C@@H]3CCC(=O)OC)CC5=O)C(CC)=C1C [MV6401, indium methyl pyropheophorbide]
[2]
  Fluorecence intensity, Tissue, Baseline: 50 ± 1.8
  Fluorecence intensity, Vessel, Baseline: 50 ± 1.6^c
[3]
  Fluorecence intensity, Tissue, 10 min: 91.9 ± 4.4
  Fluorecence intensity, Tissue, 1 hr: 121.1 ± 2.2
  Fluorecence intensity, Tissue, 24 hr: 135 ± 6.6
  Fluorecence intensity, Vessel, 10 min: 79.1 ± 1.95
  Fluorecence intensity, Vessel, 1 hr: 83.5 ± 1.9
  Fluorecence intensity, Vessel, 24 hr: 78.9 ± 2.0
[4]
  Fluorecence intensity, Tissue, Baseline: 59.5 ± 1.87
  Fluorecence intensity, Vessel, Baseline: 56.6 ± 1.24
[5]
  Fluorecence intensity, Tissue, 10 min: 119.7 ± 1.96
  Fluorecence intensity, Tissue, 1 hr: 122.9 ± 2.6
  Fluorecence intensity, Tissue, 24 hr: 156 ± 1.49
  Fluorecence intensity, Vessel, 10 min: 182.9 ± 2.6
  Fluorecence intensity, Vessel, 1 hr: 168.7 ± 2.5
  Fluorecence intensity, Vessel, 24 hr: 46 ± 1.4
